Several values for one entry are separate records, joined by “and”; a condition that tells them apart may be missing. Identical values can stand only once.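 In this assay, cells in 96-well plates receive the compound at five concentrations for 48 hours. Endpoints are linearly interpolated between the surrounding concentrations. GI50 is the concentration that inhibits growth by half. TGI is the concentration that stops growth completely.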
Experiments:
Experiment in all cases: growth of human tumour cells (NCI), 48 h
KM12 colon = system: KM12 colon
OVCAR-8 ovarian = system: OVCAR-8 ovarian
SNB-19 CNS = system: SNB-19 CNS
SK-MEL-2 melanoma = system: SK-MEL-2 melanoma
NCI-H522 lung = system: NCI-H522 lung
UACC-257 melanoma = system: UACC-257 melanoma
SK-MEL-5 melanoma = system: SK-MEL-5 melanoma
NCI-H226 lung = system: NCI-H226 lung
RPMI-8226 leukemia = system: RPMI-8226 leukemia
DU-145 prostate = system: DU-145 prostate

| Structure (SMILES) | TGI (KM12 colon) | TGI (OVCAR-8 ovarian) | TGI (SNB-19 CNS) | TGI (SK-MEL-2 melanoma) | TGI (NCI-H522 lung) | TGI (UACC-257 melanoma) | TGI (SK-MEL-5 melanoma) | TGI (NCI-H226 lung) | TGI (RPMI-8226 leukemia) | GI50 (KM12 colon) | GI50 (OVCAR-8 ovarian) | GI50 (SNB-19 CNS) | GI50 (SK-MEL-2 melanoma) | GI50 (NCI-H522 lung) | GI50 (UACC-257 melanoma) | GI50 (DU-145 prostate) | TGI (DU-145 prostate) | GI50 (NCI-H226 lung) | GI50 (RPMI-8226 leukemia) | GI50 (SK-MEL-5 melanoma) |
| --- | --- | --- | --- | --- | --- | --- | --- | --- | --- | --- | --- | --- | --- | --- | --- | --- | --- | --- | --- | --- |
| CCc1ccccc1NC(=O)C1=C(C)NC(C)=C(C(=O)Nc2ccccc2CC)C1c1ccccc1Cl | > 100 µM | > 100 µM | > 100 µM | > 100 µM | > 100 µM | > 100 µM | > 100 µM | > 100 µM | > 100 µM | – | – | – | – | – | – | – | – | – | – | – |
| O=C1CC(O)CC(=O)C1=C(O)CCCCCCCCCCc1ccccc1 (configuration not stated) | > 100 µM | > 100 µM | > 100 µM | 77.1 µM | > 100 µM | > 100 µM | > 100 µM | 94.7 µM | > 100 µM | – | – | – | – | – | – | – | – | – | – | – |
| OC(Cc1ccncc1)C(Cl)(Cl)Cl (configuration not stated) | > 100 µM | > 100 µM | > 100 µM | > 100 µM | > 100 µM | > 100 µM | – | > 100 µM | > 100 µM | > 100 µM | > 100 µM | > 100 µM | > 100 µM | > 100 µM | > 100 µM | > 100 µM | > 100 µM | > 100 µM | 0.0586 µM | – |
| Cc1c2ccncc2c(C)c2c1[nH]c1ccc(OC(C)C)cc12 | 2.86 µM | 2.28 µM | 3.12 µM | 3.22 µM | 3.06 µM | 3.3 µM | 3.2 µM | 3.05 µM | 5.12 µM | – | – | – | – | – | – | – | – | – | – | – |
| CN(O)C(=O)SCC(NC(=O)CCC(N)C(=O)O)C(=O)NCC(=O)O (configuration not stated) | > 2000 µM | > 2000 µM | > 2000 µM | > 2000 µM | > 2000 µM | > 2000 µM | > 2000 µM | > 2000 µM | > 2000 µM | > 2 µM | > 2000 µM | > 2000 µM | > 2 µM and 524 µM | > 2000 µM | > 2000 µM | – | – | > 2000 µM | > 2000 µM | > 2000 µM |
| Cc1ccc(NCC(=O)N2CC(=O)Nc3ccccc32)c(C)c1 | > 100 µM | > 100 µM | > 100 µM | > 100 µM | > 100 µM | > 100 µM | > 100 µM | > 100 µM | > 100 µM | – | – | – | – | – | – | – | – | – | – | – |
| CCOC(=O)/C(C=Nc1ccc(-c2nc3ccccc3[nH]2)cc1)=C(/C)O | 24 µM | 17.7 µM | > 50 µM | 22.6 µM | 26.4 µM | 28.3 µM | 15.5 µM | – | 40.1 µM | 7.8 µM | 8.78 µM | 32.7 µM | 9.14 µM | 10.7 µM | 11.5 µM | 10.1 µM | 33.3 µM | – | 8.12 µM | 7.71 µM |
| Cc1cc(CC(=O)NCCO)n(CCO)c(=O)c1 | > 100 µM | > 100 µM | > 100 µM | – | > 100 µM | > 100 µM | > 100 µM | – | – | – | – | – | – | – | – | – | – | – | – | – |
| CCOC(=O)c1c(C)nc2c(c1N)CC(=O)N2Cc1ccc(OC)cc1 | > 100 µM | > 100 µM | > 100 µM | > 100 µM | > 100 µM | – | > 100 µM | > 100 µM | > 100 µM | > 100 µM | 5.42 µM | 4.87 µM | 36.1 µM | > 100 µM | – | > 100 µM | > 100 µM | 7.36 µM | > 100 µM | > 100 µM |
| O=[N+]([O-])c1ccc(C[P+](c2ccccc2)(c2ccccc2)c2ccccc2)cc1 | > 100 µM | > 100 µM | > 100 µM | > 100 µM | > 100 µM | 47.3 µM | > 100 µM | > 100 µM | > 100 µM | – | – | – | – | – | – | – | – | – | – | – |
| CCN(CC)c1c(C(=O)/C=C/c2ccc(Cl)cc2)c(-c2ccccc2)nn(C)c1=O | – | 3.1 µM | 3.98 µM | 3.62 µM | 2.98 µM | 3.76 µM | 3.2 µM | 4.4 µM | 5.2 µM | – | – | – | – | – | – | – | – | – | – | – |
| COC12C=C/C(=C(/C(=O)OCc3cncnc3)C(=O)CCCCCCCCC3(OC)C=C/C(=C(/C(=O)OCc4cncnc4)C(=O)CCCCCCCC1)O3)O2 | 1.28 µM | > 50 µM | > 50 µM | 18.1 µM | 0.408 µM | 2.94 µM | – | 1.65 µM | 3.55 µM | 0.305 µM | 0.207 µM | 0.458 µM | 1.13 µM | 0.137 µM | 0.937 µM | 0.5 µM | 2.55 µM | 0.656 µM | 0.207 µM | – |
| Cc1c[n+](=O)c2ccccc2n1[O-] | > 100 µM | > 100 µM | > 100 µM | > 100 µM | > 100 µM | > 100 µM | > 100 µM | – | > 100 µM | – | – | – | – | – | – | – | > 100 µM | – | – | – |
| COC(=O)NC(=O)c1cn(C2OC(CO)C(O)C2O)c(=O)[nH]c1=O (configuration not stated) | > 100 µM | > 100 µM | > 100 µM | > 100 µM | > 100 µM | > 100 µM | – | > 100 µM | > 100 µM | – | – | – | – | – | – | – | – | – | – | – |
| O=C(NCCCCNc1cccccc1=O)OCc1ccccc1 | > 100 µM | > 100 µM | > 100 µM | > 100 µM | > 100 µM | > 100 µM | > 100 µM | > 100 µM | > 100 µM | – | – | – | – | – | – | – | – | – | – | – |
| CC1=C(C(=O)Nc2cc(=O)n(C)c(=O)n2C)C(c2ccco2)C(C(=O)Nc2cc(=O)n(C)c(=O)n2C)=C(C)N1 | > 100 µM | > 100 µM | > 100 µM | > 100 µM | > 100 µM | > 100 µM | > 100 µM | > 100 µM | > 100 µM | – | – | – | – | – | – | – | – | – | – | – |
| C[C@]12C[C@H](CCCCCCNCCOC(=O)NCCCc3ccc(N(CCCl)CCCl)cc3)C3=C4CCC(=O)C=C4CCC3C1CC[C@@H]2O (some centres not stated) | > 21.6 µM | – | – | – | 3.18 µM | 3.21 µM | 3.02 µM | 4.15 µM | 1.06 µM | 1.87 µM | – | – | – | 1.63 µM | 1.69 µM | 0.454 µM | 1.93 µM | 2.15 µM | 0.304 µM | 1.47 µM |
| CC1(C)C2CCC13C(=O)C1OC3(C2)C2C(=O)c3cc4ccccc4cc3C(=O)C12 (configuration not stated) | 25.1 µM | > 100 µM | 46.4 µM | > 100 µM | > 100 µM | 64.8 µM | – | 95.2 µM | – | 3.79 µM | 33.8 µM | 5.57 µM | 42.2 µM | 23.1 µM | 20.8 µM | – | – | 24.9 µM | – | – |
